Measurements reported in patent US20020192314A1, “Dietary supplement compositions” (priority 2001, published 2002).

Test system: LDL cholesterol
Experiment: LDL cholesterol oxidation lag time, copper ions, absorbance at 234 nm
Assay type: biochemical, human
Conditions: copper ions 5 μmole/L
Protocol: The antioxidant properties of a dietary supplement can be measured using an assay for LDL cholesterol oxidation. Briefly, blood samples are drawn and LDL cholesterol is isolated. The isolated LDL cholesterol is combined with a dietary supplement to be evaluated, and the time (i.e., lag time) before cholesterol oxidation is observed is measured. Copper ions accelerate the production of conjugated dienes due to oxidation, while antioxidants prolong the onset of diene production. Since dienes absorb light at 234 nm, LDL cholesterol oxidation can be monitored by examining the absorbance at 234 nm as a function of time. Thus, the antioxidant properties of, for example, a dietary supplement or other compound can be evaluated by determining the time elapsed before LDL cholesterol oxidation is observed.
LDL cholesterol oxidation is usually determined by measuring absorbance at 234 nm (AbS234 nm) as a function of time under oxidative conditions. The antioxidant effectiveness of various grape seed extracts was determined. LDL cholesterol was prepared from human volunteer blood samples as described above. Isolated LDL cholesterol was then mixed with a buffer, vitamin E, or grape seed extract. Copper ions (5 μmole/L final concentration) were added to each sample. Grape seed extracts were prepared at 0.5 or 1.0 mg/L final concentration. […]

## Vitamin E
  time LDL cholesterol protected from oxidation: about 125 min
Grape seed extract 0.5 mg/L, vitamin E amount comparable to blood level after 400 IU
  LDL oxidation lag time: 125 min
